This is an account of results in US8048892B2, “Azaquinolone based compounds exhibiting prolyl hydroxylase inhibitory activity, compositions, and uses thereof” (Amgen Inc., priority 2006, dated 2011).

HIF PHD2, sequence (Q9GZT9 whole entry): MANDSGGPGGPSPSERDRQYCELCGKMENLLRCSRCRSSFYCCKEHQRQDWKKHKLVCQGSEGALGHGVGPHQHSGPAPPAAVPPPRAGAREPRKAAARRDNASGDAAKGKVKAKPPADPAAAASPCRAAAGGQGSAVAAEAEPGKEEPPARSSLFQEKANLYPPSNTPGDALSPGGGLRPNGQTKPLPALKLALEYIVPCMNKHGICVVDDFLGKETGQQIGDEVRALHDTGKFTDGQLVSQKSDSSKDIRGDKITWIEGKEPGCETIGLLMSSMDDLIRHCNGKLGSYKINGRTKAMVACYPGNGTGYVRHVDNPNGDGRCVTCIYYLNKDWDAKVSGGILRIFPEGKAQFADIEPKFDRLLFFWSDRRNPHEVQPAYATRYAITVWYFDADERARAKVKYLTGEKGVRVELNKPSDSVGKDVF

For the assay, the target named is HIF PHD2 (Homo sapiens, UniProt Q9GZT9). In words: PHD2 inhibition assay (TR-FRET, VCB-Eu detection of hydroxylated P564-HIF1α peptide). Type of assay: biochemical. The conditions noted are these: 2 nM PHD2, 100 nM P564-HIF1α peptide, 0.25 μM 2-oxoglutarate. As for the experimental part:
Inhibition of HIF PHD2 activity was quantified utilizing the TR-FRET technology. HIF PHD2 catalyzes a hydroxyl modification on the proline residue of the P564-HIF1α peptide substrate (Biotin-DLEMLAPYIPMDDDFQL (SEQ ID NO: 7)) resulting in recognition and binding of the europylated Von Hippel-Lindau protein (pVHL), elongin B and elongin C heterotrimeric (VCB-Eu) complex.
The PHD2 inhibition assay was executed by addition of freshly dissolved FeCl2 to 178.57 μM (100 μM final concentration) in PHD2 Reaction Buffer containing 30 mM MES, pH 6, 10 mM NaCl, 0.25% Brij-35, 0.01% BSA, and 1% DMSO. 28 μL of the iron solution and 2 μL of inhibitor compounds serially diluted in 100% DMSO (5% DMSO final) were added to black polypropylene 96-well microtiter plates. To that, 10 μL of 10 nM PHD2 (2 nM final) was added to all wells of the plate except for the 8 wells of column 12 (LO control), and allowed to incubate at room temperature on the shaker for one hour. Column 6 was the HI control containing PHD2 enzyme and 5% DMSO vehicle, but no inhibitor compound. To initiate the PHD2 enzymatic reaction, 10 μL of a solution containing 500 nM P564-HIF1α peptide (100 nM final), 10 mM ascorbic acid (2 mM final), and 1.25 μM 2-oxoglutarate (α-ketoglutarate; 0.25 μM final) in PHD2 Reaction Buffer was added to all wells of the plate and allowed to incubate on the shaker at room temperature for one hour.
The reaction was terminated by addition of 25 μL TR-FRET Buffer (50 mM TRIS-HCl, pH 9, 100 mM NaCl, 0.05% BSA, and 0.5% Tween-20) containing 150 mM succinate (product inhibitor; 50 mM final), 75 nM streptavidin-APC (25 nM final), and 7.5 nM VCB-Eu (2.5 nM final). The TR-FRET detection reagents were placed on a shaker for 1 hour to reach binding equilibrium before reading on the Discovery platform (PerkinElmer). Europium is excited at 315 nm and phosphoresces at 615 nm with a large Stoke's shift. APC, in turn, emits at 655 nm upon excitation at 615 nm. The TR-FRET signal is measured as the ratio of the APC 655 nm signal divided by the internal europium reference 615 nm emission signal.
The POC (percentage of control) was determined by comparing the signal from hydroxylated peptide substrate in the enzyme reaction containing inhibitor compound with that from PHD2 enzyme with DMSO vehicle alone (HI control), and no enzyme (LO control). POC was calculated using the formula: % control (POC)=(cpd−average LO)/(average HI−average LO)*100. Data (consisting of POC and inhibitor concentration in μM) was fitted to a 4-parameter equation (y=A+((B−A)/(1+((x/C)^D))), where A is the minimum y (POC) value, B is the maximum y (POC), C is the x (cpd concentration) at the point of inflection and D is the slope factor) using a Levenburg-Marquardt non-linear regression algorithm.
For `Cn1c(=O)c(C(=O)NCC(=O)O)c(O)c2cc(-c3ccccc3C(F)(F)F)cnc21` [Example 42, N-((4-Hydroxy-1-methyl-2-oxo-6-(2-(trifluoromethyl)phenyl)-1,2-dihydro-1,8-naphthrydin-3-yl)carbonyl)glycine], the half-maximal inhibitory concentration (IC50) (as a rule, the point on the concentration scale where inhibition reaches its midpoint) fell in the range of 50 to 100 nM. The molecule `Cn1c(=O)c(C(=O)NCC(=O)O)c(O)c2cc(-c3ccncc3)cnc21` [Example 43, 2-(4-Hydroxy-1-methyl-2-oxo-6-(pyridin-4-yl)-1,2-dihydro-1,8-naphthyridine-3-carboxamido)acetic acid] registered a half-inhibitory concentration (IC50) of 100 to 500 nM. Next, `Cn1c(=O)c(C(=O)NCC(=O)O)c(O)c2cc(-c3cccnc3)cnc21` [Example 44, 2-(4-Hydroxy-1-methyl-2-oxo-6-(pyridin-3-yl)-1,2-dihydro-1,8-naphthyridine-3-carboxamido)acetic acid]: less than 50 nM. In the case of `Cc1ncccc1-c1cnc2c(c1)c(O)c(C(=O)NCC(=O)O)c(=O)n2C` [Example 45, 2-(4-Hydroxy-1-methyl-6-(2-methylpyridin-3-yl)-2-oxo-1,8-naphthyridine-3-carboxamido)acetic acid], the half-inhibitory concentration (IC50) was less than 50 nM.

As to `Cn1c(=O)c(C(=O)NCC(=O)O)c(O)c2cc(-c3ccccc3)cnc21` [Example 46, 2-(4-Hydroxy-1-methyl-2-oxo-6-phenyl-1,2-dihydro-1,8-naphthyridine-3-carboxamido)acetic acid], the half-inhibitory concentration (IC50) was in the range of 100 to 500 nM.

Turning to `Cc1nc(F)ccc1-c1cnc2c(c1)c(O)c(C(=O)NCC(=O)O)c(=O)n2C` [Example 47, 2-(6-(6-Fluoro-2-methylpyridin-3-yl)-4-hydroxy-1-methyl-2-oxo-1,2-dihydro-1,8-naphthyridine-3-carboxamido)acetic acid], the IC50 is less than 50 nM. Molecule `Cc1ccc(-c2cnc3c(c2)c(O)c(C(=O)NCC(=O)O)c(=O)n3C)c(F)n1` [Example 48, N-((6-(2-Fluoro-6-methyl-3-pyridinyl)-4-hydroxy-1-methyl-2-oxo-1,2-dihydro-1,8-naphthyridin-3-yl)carbonyl)glycine] came in with an IC50 of less than 50 nM. To `CN(C)c1ccc(-c2cnc3c(c2)c(O)c(C(=O)NCC(=O)O)c(=O)n3C)cc1` [Example 49, N-((6-(4-(Dimethylamino)phenyl)-4-hydroxy-1-methyl-2-oxo-1,2-dihydro-1,8-naphthyridin-3-yl)carbonyl)glycine] belongs 100 to 500 nM; to `CN(C)c1cccc(-c2cnc3c(c2)c(O)c(C(=O)NCC(=O)O)c(=O)n3C)c1` [Example 50, N-((6-(3-(Dimethylamino)phenyl)-4-hydroxy-1-methyl-2-oxo-1,2-dihydro-1,8-naphthyridin-3-yl)carbonyl)glycine], less than 50 nM; to `Cn1c(=O)c(C(=O)NCC(=O)O)c(O)c2cc(-c3ccc(F)nc3)cnc21` [Example 51, N-((6-(6-Fluoro-3-pyridinyl)-4-hydroxy-1-methyl-2-oxo-1,2-dihydro-1,8-naphthyridin-3-yl)carbonyl)glycine], less than 50 nM. To `COc1ccc(-c2cnc3c(c2)c(O)c(C(=O)NCC(=O)O)c(=O)n3C)cn1` [Example 52, N-((4-Hydroxy-1-methyl-6-(6-(methyloxy)-3-pyridinyl)-2-oxo-1,2-dihydro-1,8-naphthyridin-3-yl)carbonyl)glycine] belongs 100 to 500 nM; to `COc1ncccc1-c1cnc2c(c1)c(O)c(C(=O)NCC(=O)O)c(=O)n2C` [Example 53, N-((4-Hydroxy-1-methyl-6-(2-(methyloxy)-3-pyridinyl)-2-oxo-1,2-dihydro-1,8-naphthyridin-3-yl)carbonyl)glycine], less than 50 nM. `Cn1c(=O)c(C(=O)NCC(=O)O)c(O)c2cc(-c3cccc(N4CCOCC4)c3)cnc21` [Example 54] registered an IC50 of 50 to 100 nM. To `COc1cncc(-c2cnc3c(c2)c(O)c(C(=O)NCC(=O)O)c(=O)n3C)c1` [Example 55, N-((4-Hydroxy-1-methyl-6-(5-(methyloxy)-3-pyridinyl)-2-oxo-1,2-dihydro-1,8-naphthyridin-3-yl)carbonyl)glycine] belongs 50 to 100 nM.

Molecule `CN1CCOc2cc(-c3cnc4c(c3)c(O)c(C(=O)NCC(=O)O)c(=O)n4C)ccc21` [Example 56, N-((4-Hydroxy-1-methyl-6-(4-methyl-3,4-dihydro-2H-1,4-benzoxazin-7-yl)-2-oxo-1,2-dihydro-1,8-naphthyridin-3-yl)carbonyl)glycine] came in with a half-maximal inhibitory concentration (IC50) of 50 to 100 nM.

In the case of `Cn1c(=O)c(C(=O)NCC(=O)O)c(O)c2cc(-c3ccccc3N3CCOCC3)cnc21` [Example 57, N-((4-Hydroxy-1-methyl-6-(2-(4-morpholinyl)phenyl)-2-oxo-1,2-dihydro-1,8-naphthyridin-3-yl)carbonyl)glycine], the 50% inhibitory concentration (IC50) is less than 50 nM.

Molecule `Cn1c(=O)c(C(=O)NCC(=O)O)c(O)c2cc(-c3ccccc3N3CCCCC3)cnc21` [Example 58, N-((4-Hydroxy-1-methyl-2-oxo-6-(2-(1-piperidinyl)phenyl)-1,2-dihydro-1,8-naphthyridin-3-yl)carbonyl)glycine] displayed a concentration for half-maximal inhibition (IC50) of 50 to 100 nM.

`Cn1c(=O)c(C(=O)NCC(=O)O)c(O)c2cc(-c3cccc(N4CCCCC4)c3)cnc21` [Example 59, N-((4-Hydroxy-1-methyl-2-oxo-6-(3-(1-piperidinyl)phenyl)-1,2-dihydro-1,8-naphthyridin-3-yl)carbonyl)glycine] gave a concentration for half-maximal inhibition (IC50) of 50 to 100 nM. As for `Cn1c(=O)c(C(=O)NCC(=O)O)c(O)c2cc(-c3cccc(N4CCCC4)c3)cnc21` [Example 60, N-((4-Hydroxy-1-methyl-2-oxo-6-(3-(1-pyrrolidinyl)phenyl)-1,2-dihydro-1,8-naphthyridin-3-yl)carbonyl)glycine], the half-maximal inhibitory concentration (IC50) was 100 to 500 nM. Next, `Cn1c(=O)c(C(=O)NCC(=O)O)c(O)c2cc(-c3cncnc3)cnc21` [Example 61, N-((4-Hydroxy-1-methyl-2-oxo-6-(5-pyrimidinyl)-1,2-dihydro-1,8-naphthyridin-3-yl)carbonyl)glycine]: less than 50 nM. To `CN(C)c1ccc(-c2cnc3c(c2)c(O)c(C(=O)NCC(=O)O)c(=O)n3C)cn1` [Example 62, N-((6-(6-(Dimethylamino)-3-pyridinyl)-4-hydroxy-1-methyl-2-oxo-1,2-dihydro-1,8-naphthyridin-3-yl)carbonyl)glycine] belongs less than 50 nM; to `Cn1c(=O)c(C(=O)NCC(=O)O)c(O)c2cc(-c3ccc(N4CCOCC4)cc3)cnc21` [Example 63, N-((4-Hydroxy-1-methyl-6-(4-(4-morpholinyl)phenyl)-2-oxo-1,2-dihydro-1,8-naphthyridin-3-yl)carbonyl)glycine], less than 50 nM.

`COc1ncc(-c2cnc3c(c2)c(O)c(C(=O)NCC(=O)O)c(=O)n3C)cn1` [Example 64, 2-(4-Hydroxy-6-(2-methoxypyrimidin-5-yl)-1-methyl-2-oxo-1,2-dihydro-1,8-naphthyridine-3-carboxamido)acetic acid] yielded an IC50 of 50 to 100 nM.

Turning to `Cn1c(=O)c(C(=O)NCC(=O)O)c(O)c2cc(-c3ccnc(F)c3)cnc21` [Example 65, 2-(6-(2-Fluoropyridin-4-yl)-4-hydroxy-1-methyl-2-oxo-1,2-dihydro-1,8-naphthyridine-3-carboxamido)acetic acid], the IC50 is less than 50 nM. To `Cn1c(=O)c(C(=O)NCC(=O)O)c(O)c2cc(C3CCCCC3)cnc21` [Example 66, 2-(6-Cyclohexyl-4-hydroxy-1-methyl-2-oxo-1,2-dihydro-1,8-naphthyridine-3-carboxamido)acetic acid] belongs less than 50 nM; to `Cn1c(=O)c(C(=O)NCC(=O)O)c(O)c2cc(C3=CCCCC3)cnc21` [Example 67, 2-(6-Cyclohexenyl-4-hydroxy-1-methyl-2-oxo-1,2-dihydro-1,8-naphthyridine-3-carboxamido)acetic acid], less than 50 nM.

The molecule `Cn1c(=O)c(C(=O)NCC(=O)O)c(O)c2cc(C3CCCO3)cnc21` (stereo not drawn) [Example 71, 2-(4-Hydroxy-1-methyl-2-oxo-6-(tetrahydrofuran-2-yl)-1,2-dihydro-1,8-naphthyridine-3-carboxamido)acetic acid] came in with a half-inhibitory concentration (IC50) of 50 to 100 nM.
